Test results published in ChEMBL document CHEMBL4842376, “Design, synthesis and biological evaluation of novel hybrids targeting mTOR and HDACs for potential treatment of hepatocellular carcinoma” (Eur J Med Chem, 2021).
pIC50: −log10 of the molar value.

Columns and labels:
HepG2 [1] = assay: Induction of apoptosis in human HepG2 cells assessed as early apoptotic cells at 10 uM measured after 24 hrs by Annexin V-FITC/PI staining based flow cytometry analysis (Rvb= 6.15%); type: functional
HepG2 [2] = assay: Induction of cell cycle arrest in human HepG2 cells assessed as accumulation of cells in G0/G1 phase at 1.5 uM measured after 24 hrs by propidium iodide staining based flow cytometry analysis (reference value: 52.7 to 63.2%); type: functional
[3] = biological target: T1, Protein deacetylase HDAC6 (Homo sapiens, UniProt Q9UBN7); assay: Inhibition of HDAC6 (unknown origin) using Ac-peptide as a substrate pretreated for 15 mins followed by substrate addition
T1 sequence (Q9UBN7 whole entry): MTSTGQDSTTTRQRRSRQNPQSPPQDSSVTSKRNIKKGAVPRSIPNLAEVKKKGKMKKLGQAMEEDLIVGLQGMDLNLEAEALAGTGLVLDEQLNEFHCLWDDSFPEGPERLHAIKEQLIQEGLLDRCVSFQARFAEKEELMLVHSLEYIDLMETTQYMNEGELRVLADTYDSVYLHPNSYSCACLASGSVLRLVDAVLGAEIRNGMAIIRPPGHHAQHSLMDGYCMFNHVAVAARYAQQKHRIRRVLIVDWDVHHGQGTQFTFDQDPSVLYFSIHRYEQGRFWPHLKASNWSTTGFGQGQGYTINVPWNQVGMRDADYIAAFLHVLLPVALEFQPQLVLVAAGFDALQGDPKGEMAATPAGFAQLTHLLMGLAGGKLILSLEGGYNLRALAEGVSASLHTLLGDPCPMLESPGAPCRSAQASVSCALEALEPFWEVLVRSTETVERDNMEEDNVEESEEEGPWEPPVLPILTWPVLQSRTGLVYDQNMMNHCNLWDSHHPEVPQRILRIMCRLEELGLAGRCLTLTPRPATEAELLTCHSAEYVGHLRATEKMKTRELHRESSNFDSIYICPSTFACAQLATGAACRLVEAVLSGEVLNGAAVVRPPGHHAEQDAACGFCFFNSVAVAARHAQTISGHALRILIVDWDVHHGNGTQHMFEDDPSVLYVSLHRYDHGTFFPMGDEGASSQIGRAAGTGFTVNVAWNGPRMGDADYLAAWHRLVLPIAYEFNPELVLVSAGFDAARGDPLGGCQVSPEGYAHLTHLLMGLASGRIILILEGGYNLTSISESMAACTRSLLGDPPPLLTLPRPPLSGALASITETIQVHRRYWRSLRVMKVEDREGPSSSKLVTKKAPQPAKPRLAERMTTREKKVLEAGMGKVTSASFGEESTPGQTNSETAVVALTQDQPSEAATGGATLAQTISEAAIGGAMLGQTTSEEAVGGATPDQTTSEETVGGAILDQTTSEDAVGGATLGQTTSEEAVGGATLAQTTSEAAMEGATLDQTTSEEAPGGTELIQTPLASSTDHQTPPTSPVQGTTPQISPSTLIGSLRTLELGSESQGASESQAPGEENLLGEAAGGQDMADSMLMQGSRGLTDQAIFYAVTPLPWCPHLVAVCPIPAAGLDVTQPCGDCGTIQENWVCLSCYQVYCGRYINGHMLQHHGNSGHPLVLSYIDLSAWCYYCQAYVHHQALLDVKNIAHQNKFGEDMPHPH

[4] = biological target: Serine/threonine-protein kinase mTOR (Homo sapiens, UniProt P42345); assay: Inhibition of mTOR (unknown origin) using U-Light-4E-BP1 peptide as a substrate in the presence of ATP incubated for 30 mins by Lance ultra assay
HepG2 [5] = assay: Induction of cell cycle arrest in human HepG2 cells assessed as accumulation of cells in G2/M phase at 3 uM measured after 24 hrs by propidium iodide staining based flow cytometry analysis (reference value: 17.8 to 18.5%); type: functional
A549 = assay: cells; type: functional, cell-based; details: Homo sapiens, A549, 72 h
Description: Antiproliferative activity against human A549 cells assessed as inhibition of cell growth measured after 72 hrs by MTT assay

[6] = Metabolic stability in rat liver microsomes assessed as parent compound remaining at 10 ug/ml measured after 1 hr in the presence of NADPH by HPLC analysis; type: ADME, Microsome; details: at 10 µg/mL
[7] = biological target: T2, Protein deacetylase HDAC6 (Homo sapiens) (UniProt Q9UBN7); assay: Inhibition of HDAC6 (unknown origin) at 1 uM using Ac-peptide as a substrate pretreated for 15 mins followed by substrate addition relative to control
T2 sequence (whole entry): T1 sequence (Q9UBN7 whole entry)

HepG2 [8] = assay: Induction of apoptosis in human HepG2 cells assessed as late apoptotic cells at 10 uM measured after 24 hrs by Annexin V-FITC/PI staining based flow cytometry analysis (Rvb= […]); type: functional
HepG2 [9] = assay: Induction of apoptosis in human HepG2 cells assessed as early apoptotic cells at 5 uM measured after 24 hrs by Annexin V-FITC/PI staining based flow cytometry analysis (Rvb= 6.15%); type: functional
HepG2 [10] = assay: Induction of apoptosis in human HepG2 cells assessed as live cells at 5 uM measured after 24 hrs by Annexin V-FITC/PI staining based flow cytometry analysis (Rvb= 84.6%); type: functional
MCF7 = assay: cells; type: functional, cell-based; details: Homo sapiens, MCF7, 72 h
Description: Antiproliferative activity against human MCF7 cells assessed as inhibition of cell growth measured after 72 hrs by MTT assay

Hep 3B2 = assay: cells; type: functional, cell-based; details: Homo sapiens, Hep3B, 72 h
Description: Antiproliferative activity against human Hep3B cells assessed as inhibition of cell growth measured after 72 hrs by MTT assay

HepG2 [11] = assay: Induction of cell cycle arrest in human HepG2 cells assessed as accumulation of cells in G0/G1 phase at 3 uM measured after 24 hrs by propidium iodide staining based flow cytometry analysis (reference value: 52.7 to 63.2%); type: functional
SK-HEP1 = assay: cells; type: functional, cell-based; details: Homo sapiens, SK-HEP1, 72 h
Description: Antiproliferative activity against human SK-HEP1 cells assessed as inhibition of cell growth measured after 72 hrs by MTT assay

Huh-7 = assay: cells; type: functional, cell-based; details: Homo sapiens, Huh-7, 72 h
Description: Antiproliferative activity against human Huh-7 cells assessed as inhibition of cell growth measured after 72 hrs by MTT assay

HepG2 [12] = assay: Induction of apoptosis in human HepG2 cells assessed as necrotic cells at 2.5 uM measured after 24 hrs by Annexin V-FITC/PI staining based flow cytometry analysis (Rvb= 0.082%); type: functional
HepG2 [13] = assay: Induction of apoptosis in human HepG2 cells assessed as live cells at 2.5 uM measured after 24 hrs by Annexin V-FITC/PI staining based flow cytometry analysis (Rvb= 84.6%); type: functional
HCT-116 = assay: cells; type: functional, cell-based; details: Homo sapiens, HCT-116, 72 h
Description: Antiproliferative activity against human HCT-116 cells assessed as inhibition of cell growth measured after 72 hrs by MTT assay

HeLa = assay: cells; type: functional, cell-based; details: Homo sapiens, 72 h
Description: Antiproliferative activity against human HeLa cells assessed as inhibition of cell growth measured after 72 hrs by MTT assay

MDA-MB-231 = assay: cells; type: functional, cell-based; details: Homo sapiens, MDA-MB-231, 72 h
Description: Antiproliferative activity against human MDA-MB-231 cells assessed as inhibition of cell growth measured after 72 hrs by MTT assay

PLC-PRF-5 = assay: Antiproliferative activity against human PLC-PRF-5 cells assessed as inhibition of cell growth measured after 72 hrs by MTT assay; type: functional, cell-based; details: PLC-PRF-5, 72 h
HepG2 [14] = assay: Induction of cell cycle arrest in human HepG2 cells assessed as accumulation of cells in G2/M phase at 1.5 uM measured after 24 hrs by propidium iodide staining based flow cytometry analysis (Rvb= 17.8 to 18.5%); type: functional

SMILES | Activity (HepG2 [1]) [%] | Activity (HepG2 [2]) [%] | pIC50 [3] | pIC50 [4] | Activity (HepG2 [5]) [%] | pIC50 (A549) | inhibition [7] [%] | Activity (HepG2 [8]) [%] | Activity (HepG2 [9]) [%] | Activity (HepG2 [10]) [%] | pIC50 (MCF7) | pIC50 (Hep 3B2) | Activity (HepG2 [11]) [%] | pIC50 (SK-HEP1) | pIC50 (Huh-7) | Activity (HepG2 [12]) [%] | Activity (HepG2 [13]) [%] | pIC50 (HCT-116) | pIC50 (HeLa) | pIC50 (MDA-MB-231) | further results
Nc1nc2cc(-c3nn(CCCCCCC(=O)NO)c4ncnc(N)c34)ccc2o1 | 30.4 | 66.2 | 7.99 | 8.12 | 10.8 | 4.48 | 99 | 27.2 | 15.3 | 69.6 | 4.93 | 4.86 | 70.4 | 5.57 | 5.24 | 0.15 | 63.7 | 5.27 | 5.19 | 5.07 | Stabilty ([6]; microsomes, 1 h): Stable; pIC50 (PLC-PRF-5): < 4.30; Activity (HepG2 [14]): 14.8%
Nc1ncnc2c1c(-c1cnc3[nH]ccc3c1)nn2CCCCCCCCC(=O)NO | 19.7 | 60.1 | 8.02 | 7.03 | 18.6 | 4.91 | 99.2 | 17.8 | 12 | 77.5 | 4.61 | 5.08 | 64.5 | 4.95 | 5.13 | 0.56 | 69.7 | 5.26 | 5.13 | 4.96 | remaining at 1 h, 10 ug/ml ([6]; liver microsomes, read-out: Stabilty): 55.2%; pIC50 (PLC-PRF-5): 4.83; Activity (HepG2 [14]): 19.4%
